Assay [1] concerns Mycobacterium tuberculosis. The assay is described as follows: Antimycobacterial activity against Mycobacterium tuberculosis H37Rv assessed as reduction in bacterial growth incubated for 7 days by resazurin dye based assay. Type of assay: functional. The conditions noted are these: 168 h, time 7 day. On the technique in general: The colour change of resazurin is a common sign of viable cells or microbes.

The test system of assay [2] is Mycobacterium tuberculosis. Nature of the assay: Antimycobacterial activity against Mycobacterium tuberculosis. Type of assay: functional, organism-based.

From ChEMBL document CHEMBL6078693, “Move over COVID, Tuberculosis Is Once again the Leading Cause of Death from a Single Infectious Disease” (J Med Chem, 2024) come the findings set out here.

Values after ≈ are worked out from the molar mass of the structure shown.

As a reminder, the MIC is the lowest concentration found to suppress growth. Usually IC50 stands for the midpoint of a concentration-inhibition curve. Higher therefore signals weaker potency in that assay. Take `NC[C@H]1OB(O)c2c(OCCO)ccc(Cl)c21` [GANFEBOROLE]: in assay [1], the MIC amounted to 0.08 µM (≈ 0.0206 µg/mL). This compound also had an IC50 in assay [2] of 200 nM.
